{"source": "paper PMC5618426", "about": "“APETx4, a Novel Sea Anemone Toxin and a Modulator of the Cancer-Relevant Potassium Channel KV10.1” (Marine Drugs, 2017)", "key": {"hERG": {"test_system": "hERG", "settings": "cited from earlier work"}, "KV2.1": {"test_system": "KV2.1", "settings": "ref [46]; cited from earlier work", "source_text": "APETx1 is proposed to bind to the voltage sensor paddle of hERG. In particular, the negative charge of E518 is expected to form an electrostatic interaction with the toxin [44]. Several other kinds of gating modifier toxins also bind to the extracellular exposed part of the S3–S4 domain. More precisely by binding to a glutamic acid residue and several hydrophobic amino acid residues. An example of these toxins is Hanatoxin (HaTx1) from the tarantula Grammostola spatulata."}, "KV10.1": {"test_system": "KV10.1", "assay": "KV10.1 inhibition by related toxins (unpublished data)", "type": "cell-based"}, "ASIC3": {"test_system": "ASIC3", "settings": "cited from earlier work"}}}
{"molecule": "COc1ccc(CCN2CCC(Nc3nc4ccccc4n3Cc3ccc(F)cc3)CC2)cc1", "note": "[astemizole]", "values": [{"measurement": "block of hERG (KV11.1)", "setting": "hERG", "value": "block the cardiac human Eag-related gene (hERG, KV11.1)"}]}
{"molecule": "HaTx1: toxin from the tarantula Grammostola spatulata (ECRYLFGGCKTTSDCCKHLGCKFRDKYCAWDFTFS; UniProt P56852 50-84, looked up)", "values": [{"measurement": "gating modification of KV2.1", "setting": "KV2.1", "value": "modifies the channel gating of KV2.1"}]}
{"molecule": "APETx2", "values": [{"measurement": "IC50", "setting": "hERG", "value": "~1200", "unit": "nM"}, {"measurement": "effect on KV10.1", "setting": "KV10.1", "value": "no effect on KV10.1"}, {"measurement": "IC50", "setting": "ASIC3", "value": "~63", "unit": "nM"}]}
